Drawing on ChEMBL document CHEMBL1132603, this text covers K 0.5 for 12 compounds.

Experiment [1] deals with D(1A) dopamine receptor (Rattus norvegicus) (UniProt P18901). In words: Inhibition of [3H]SCH-23390 binding to rat striatal membrane Dopamine receptor D1.
Experiment [2] deals with D(2) dopamine receptor (Rattus norvegicus) (UniProt P61169). In words: Affinity on C6 glioma cells transfected with Dopamine receptor D2L. Format: cell-based.
The target is the same in experiment [3]. The experiment can be described thus: Inhibition of [3H]spiperone binding to rat striatal membrane Dopamine receptor D2.
In experiment [4] the target is D(3) dopamine receptor (Rattus norvegicus) (UniProt P19020). Particulars: C6.
Description: Affinity on C6 glioma cells transfected with Dopamine receptor D3

Bounds are passed on as bounds.

Sequence of D(3) dopamine receptor (Rattus norvegicus) (P19020 whole entry): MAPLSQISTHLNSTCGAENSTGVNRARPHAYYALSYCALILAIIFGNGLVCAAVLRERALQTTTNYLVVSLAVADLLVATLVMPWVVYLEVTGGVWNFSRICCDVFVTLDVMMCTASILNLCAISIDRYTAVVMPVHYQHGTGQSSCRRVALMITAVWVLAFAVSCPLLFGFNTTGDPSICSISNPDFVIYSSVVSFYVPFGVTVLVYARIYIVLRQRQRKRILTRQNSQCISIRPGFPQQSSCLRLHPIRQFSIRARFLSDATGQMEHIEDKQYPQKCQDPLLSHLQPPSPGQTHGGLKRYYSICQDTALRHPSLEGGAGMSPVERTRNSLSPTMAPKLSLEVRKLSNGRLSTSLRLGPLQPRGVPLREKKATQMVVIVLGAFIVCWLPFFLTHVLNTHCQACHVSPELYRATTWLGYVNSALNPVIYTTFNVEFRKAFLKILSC
Sequence of D(2) dopamine receptor (Rattus norvegicus) (P61169 whole entry): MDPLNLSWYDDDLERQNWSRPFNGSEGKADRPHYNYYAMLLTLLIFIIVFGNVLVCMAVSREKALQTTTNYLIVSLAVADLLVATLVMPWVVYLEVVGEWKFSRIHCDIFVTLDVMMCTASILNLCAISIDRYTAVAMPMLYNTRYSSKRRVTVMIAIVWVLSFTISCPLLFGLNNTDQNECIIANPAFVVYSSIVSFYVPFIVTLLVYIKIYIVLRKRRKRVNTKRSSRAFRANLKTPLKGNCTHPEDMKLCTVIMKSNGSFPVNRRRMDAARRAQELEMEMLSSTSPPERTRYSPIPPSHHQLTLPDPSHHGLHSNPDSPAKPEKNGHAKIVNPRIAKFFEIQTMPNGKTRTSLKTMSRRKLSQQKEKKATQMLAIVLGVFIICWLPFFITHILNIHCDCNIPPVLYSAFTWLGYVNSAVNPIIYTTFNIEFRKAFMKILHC
Sequence of D(1A) dopamine receptor (Rattus norvegicus) (P18901 whole entry): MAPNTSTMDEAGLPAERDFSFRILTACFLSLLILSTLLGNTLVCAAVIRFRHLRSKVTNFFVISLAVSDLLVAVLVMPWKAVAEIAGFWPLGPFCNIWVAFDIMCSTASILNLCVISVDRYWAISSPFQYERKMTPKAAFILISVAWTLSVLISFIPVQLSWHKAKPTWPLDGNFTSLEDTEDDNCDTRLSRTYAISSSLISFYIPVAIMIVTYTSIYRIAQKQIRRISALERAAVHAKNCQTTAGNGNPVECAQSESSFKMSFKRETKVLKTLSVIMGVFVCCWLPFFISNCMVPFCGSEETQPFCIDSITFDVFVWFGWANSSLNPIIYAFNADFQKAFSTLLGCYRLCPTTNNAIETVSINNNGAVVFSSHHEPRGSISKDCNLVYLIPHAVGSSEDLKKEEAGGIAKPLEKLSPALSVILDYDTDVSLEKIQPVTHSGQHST

As for `CN1Cc2ccccc2[C@@H]2Cc3n[nH]cc3C[C@H]21`, the K 0.5 was more than 5 µM in experiment [1], 3090 nM in experiment [2], 189 nM in experiment [3] and 187 nM in experiment [4].
Turning to `Nc1ncc2c(n1)C[C@H]1c3ccccc3CN[C@@H]1C2`, the K 0.5 in experiment [1] was more than 5 µM; in experiment [3], 467 nM; in experiment [4], 324 nM.
Turning to `CCCN1CCC[C@@H]2Cc3nc(N)ncc3C[C@H]21`, the K 0.5 in experiment [1] is more than 5 µM; in experiment [2], 710 nM; in experiment [3], 4.78 nM.
On to `c1ccc2c(c1)CN[C@@H]1Cc3c[nH]nc3C[C@@H]21`, for which the K 0.5 in experiment [1] was more than 5 µM; in experiment [2] it was more than 5000 nM; in experiment [3] it was 641 nM; in experiment [4], 955 nM.
Regarding `C=CCN1Cc2ccccc2[C@@H]2Cc3nc(N)ncc3C[C@H]21`, the K 0.5 in experiment [1] was more than 5 µM; in experiment [2], more than 5000 nM; in experiment [3], 102 nM; in experiment [4] it was 15.8 nM.
For the compound `Oc1ccc2c(c1O)Cc1cccc3c1[C@H]2CNC3`, in experiment [2], the K 0.5 was 174 nM.
In the case of `Oc1cc2c(cc1O)[C@H]1c3ccccc3CN[C@@H]1CC2`, the K 0.5 in experiment [2] was determined as 1490 nM; in experiment [4], 170 nM.
`CCCN1Cc2ccccc2[C@@H]2Cc3nc(N)ncc3C[C@H]21`: the K 0.5 in experiment [1] is more than 5 µM; in experiment [2] it was more than 5000 nM; in experiment [3], 45 nM; in experiment [4] it was 20.2 nM.
Taken in the same sequence, the figures for `CCCN1Cc2ccccc2[C@@H]2Cc3n[nH]cc3C[C@H]21` were more than 5 µM, 4300 nM, 209 nM and 162 nM.
Taken in the same sequence, the figures for `C=CCN1Cc2ccccc2[C@@H]2Cc3n[nH]cc3C[C@H]21` were more than 5 µM, 1880 nM, 100 nM and 73.7 nM.
In experiment [1], `CN1CCc2cc(Cl)c(O)cc2[C@@H](c2ccccc2)C1` displayed a K 0.5 of 0.0004 µM.
As to `O=C(CCCN1CCC2(CC1)C(=O)NCN2c1ccccc1)c1ccc(F)cc1`, the K 0.5 in experiment [2] was 0.16 nM; in experiment [3] it was 0.21 nM.
